The record followed here is article PMC3759295 (Toxicology letters, 2013).

The test system of this data set is CYP1A1 mRNA in primary human hepatocytes. Nature of the data set: CYP1A1 mRNA expression in primary human hepatocytes. In kind it is cell-based.
Where [1] appears, read: hepatocyte culture LH45, 10 µM, 24 h.
Setting [2] is: hepatocyte culture LH45, 50 µM, 24 h.
Setting [3] is: hepatocyte culture LH46, 10 µM, 24 h.
[4] abbreviates: hepatocyte culture LH46, 50 µM, 24 h.
The mark [5] stands for this setting: hepatocyte culture LH47, 50 µM, 24 h.
Where [6] appears, read: hepatocyte culture LH48 (so in the source), 50 µM, 24 h.

As to `COc1cc(-c2[o+]c3cc(O)cc(O)c3cc2O[C@@H]2O[C@H](CO)[C@H](O)[C@H](O)[C@H]2O)cc(OC)c1O.[Cl-]` [MAL-3, malvidin-3-O-galactoside chloride], the “CYP1A1 mRNA fold induction over the vehicle-treated cells, LH45” value (shortened to “CYP1A1 mRNA fold induction … LH45”) amounted to 0.12 ± 0.00 fold under setting [1] and 0.28 ± 0.04 fold under setting [2]. The “CYP1A1 mRNA fold induction over the vehicle-treated cells, LH46” value (from here on “CYP1A1 mRNA fold induction … LH46”) under setting [3] came out at 0.87 ± 0.02 fold and the “CYP1A1 mRNA fold induction … LH46” value under setting [4] came to 1.32 ± 0.05 fold. In addition, the “CYP1A1 mRNA fold induction over the vehicle-treated cells, LH47” value (from here on “CYP1A1 mRNA fold induction … LH47”) under setting [5] was 0.54 ± 0.02 fold. The “CYP1A1 mRNA fold induction over the vehicle-treated cells, LH48” value (“CYP1A1 mRNA fold induction … LH48” for short) under setting [6] turned out to be 0.33 ± 0.02 fold.

Turning to `OCC1OC(Oc2cc3c(OC4OC(CO)C(O)C(O)C4O)cc(O)cc3[o+]c2-c2cc(O)c(O)c(O)c2)C(O)C(O)C1O.[Cl-]` (stereo not drawn) [DEL-3, delphinidin-3,5-di-O-glucoside chloride], the “CYP1A1 mRNA fold induction … LH45” value by setting is: under setting [1], 0.82 ± 0.02 fold; under setting [2], 1.70 ± 3.26 fold. The “CYP1A1 mRNA fold induction … LH46” value by setting is: under setting [3], 0.85 ± 0.06 fold; under setting [4], 1.14 ± 0.21 fold. Also, the “CYP1A1 mRNA fold induction … LH47” value under setting [5] is reported as 0.39 ± 0.06 fold. For the same compound, the “CYP1A1 mRNA fold induction … LH48” value under setting [6] is on record as 0.02 ± 0.01 fold.

With `OC[C@H]1O[C@@H](Oc2cc3c(O)cc(O)cc3[o+]c2-c2ccc(O)c(O)c2)[C@H](O[C@@H]2OC[C@@H](O)[C@H](O)[C@H]2O)[C@@H](O)[C@@H]1O.[Cl-]` [CYA-8, cyanidin-3-O-sambubioside chloride], where the note is “10 µM”, the “CYP1A1 mRNA fold induction … LH45” value was found to be 0.26 ± 0.01 fold and the “CYP1A1 mRNA fold induction … LH46” value is recorded as 1.48 ± 1.14 fold. For the same compound, where the note is “50 µM”, the “CYP1A1 mRNA fold induction … LH45” value stood at 0.20 ± 0.04 fold; the “CYP1A1 mRNA fold induction … LH46” value was determined as 1.72 ± 0.72 fold; the “CYP1A1 mRNA fold induction … LH47” value worked out at 2.44 fold; the “CYP1A1 mRNA fold induction … LH48” value is listed as 0.02 ± 0.00 fold.

On to `OC[C@H]1O[C@@H](Oc2cc3c(O[C@@H]4O[C@H](CO)[C@@H](O)[C@H](O)[C@H]4O)cc(O)cc3[o+]c2-c2ccc(O)cc2)[C@H](O)[C@@H](O)[C@@H]1O` [PEL-1, pelargonidin-3,5-di-O-glucoside chloride], for which, where the note is “10 µM”, the “CYP1A1 mRNA fold induction … LH45” value was determined as 0.70 ± 0.17 fold and the “CYP1A1 mRNA fold induction … LH46” value was found to be 1.49 ± 0.10 fold. In addition, for the setting “50 µM”, the “CYP1A1 mRNA fold induction … LH45” value amounted to 1.17 ± 0.14 fold; the “CYP1A1 mRNA fold induction … LH46” value was 2.21 ± 0.66 fold; the “CYP1A1 mRNA fold induction … LH47” value is given as 0.59 ± 0.52 fold; the “CYP1A1 mRNA fold induction … LH48” value is listed as 0.98 ± 0.27 fold.

`OC[C@H]1O[C@@H](Oc2cc3c(O)cc(O)cc3[o+]c2-c2ccc(O)c(O)c2)[C@H](O)[C@@H](O)[C@H]1O.[Cl-]` [CYA-7, cyanidin-3-O-galactoside chloride]: under “10 µM”, the “CYP1A1 mRNA fold induction … LH45” value is reported as 0.65 ± 0.11 fold and the “CYP1A1 mRNA fold induction … LH46” value was 2.62 ± 0.41 fold. Also, for the setting “50 µM”, the “CYP1A1 mRNA fold induction … LH45” value turned out to be 0.34 ± 0.06 fold; the “CYP1A1 mRNA fold induction … LH46” value was 1.85 ± 0.09 fold; the “CYP1A1 mRNA fold induction … LH47” value is reported as 0.25 ± 0.02 fold; the “CYP1A1 mRNA fold induction … LH48” value is 0.05 ± 0.02 fold.

Consider `OC[C@H]1O[C@@H](Oc2cc3c(O)cc(O)cc3[o+]c2-c2cc(O)c(O)c(O)c2)[C@H](O)[C@@H](O)[C@@H]1O.[Cl-]` [DEL-1, delphinidin-3-O-glucoside chloride], for which the “CYP1A1 mRNA fold induction … LH45” value is on record as 1.80 ± 0.11 fold under setting [1] and 1.50 ± 0.21 fold under setting [2]. The “CYP1A1 mRNA fold induction … LH46” value is, setting by setting: under setting [3], 1.99 ± 0.12 fold; under setting [4], 0.80 ± 0.07 fold. Moreover, the “CYP1A1 mRNA fold induction … LH47” value under setting [5] amounted to 1.01 ± 0.12 fold. For the same compound, the “CYP1A1 mRNA fold induction … LH48” value under setting [6] is on record as 0.01 ± 0.00 fold.

On to `Oc1cc(O)c2cc(O[C@@H]3OC[C@H](O)[C@H](O)[C@H]3O)c(-c3ccc(O)c(O)c3)[o+]c2c1.[Cl-]` [CYA-5, cyanidin-3-O-arabinoside chloride], for which, for the setting “10 µM”, the “CYP1A1 mRNA fold induction … LH45” value worked out at 0.69 ± 0.06 fold and the “CYP1A1 mRNA fold induction … LH46” value turned out to be 0.67 ± 0.07 fold. For the same compound, under “50 µM”, the “CYP1A1 mRNA fold induction … LH45” value was found to be 1.16 ± 0.17 fold; the “CYP1A1 mRNA fold induction … LH46” value came out at 0.61 ± 0.08 fold; the “CYP1A1 mRNA fold induction … LH47” value was 0.34 ± 0.11 fold; the “CYP1A1 mRNA fold induction … LH48” value amounted to 0.07 ± 0.01 fold.

In the case of `OC[C@H]1O[C@@H](O[C@H]2[C@@H](Oc3cc4c(O)cc(O)cc4[o+]c3-c3ccc(O)c(O)c3)O[C@H](CO)[C@@H](O)[C@@H]2O)[C@H](O)[C@@H](O)[C@@H]1O.[Cl-]` [CYA-4, cyanidin-3-O-sophoroside chloride], for the setting “10 µM”, the “CYP1A1 mRNA fold induction … LH45” value is 1.31 ± 0.25 fold and the “CYP1A1 mRNA fold induction … LH46” value is listed as 2.97 ± 0.39 fold. Further, under “50 µM”, the “CYP1A1 mRNA fold induction … LH45” value was 0.46 ± 0.03 fold; the “CYP1A1 mRNA fold induction … LH46” value came to 0.28 ± 0.05 fold; the “CYP1A1 mRNA fold induction … LH47” value was 0.51 ± 0.16 fold; the “CYP1A1 mRNA fold induction … LH48” value came out at 0.05 ± 0.02 fold.

On to `COc1cc(-c2[o+]c3cc(O)cc(O[C@@H]4O[C@H](CO)[C@@H](O)[C@H](O)[C@H]4O)c3cc2O[C@@H]2O[C@H](CO)[C@@H](O)[C@H](O)[C@H]2O)cc(OC)c1O.[Cl-]` [MAL-2, malvidin-3,5-di-O-glucoside chloride], for which the “CYP1A1 mRNA fold induction … LH45” value is, setting by setting: under setting [1], 1.14 ± 0.28 fold; under setting [2], 0.44 ± 0.01 fold. Also, the “CYP1A1 mRNA fold induction … LH46” value by setting is: under setting [3], 1.72 ± 0.39 fold; under setting [4], 1.64 ± 0.38 fold. Moreover, the “CYP1A1 mRNA fold induction … LH47” value under setting [5] is reported as 0.56 ± 0.07 fold. Moreover, the “CYP1A1 mRNA fold induction … LH48” value under setting [6] came out at 0.93 ± 0.09 fold.

Turning to `C[C@@H]1O[C@@H](Oc2cc3c(O)cc(O)cc3[o+]c2-c2ccc(O)c(O)c2)[C@H](O)[C@H](O)[C@H]1O.[Cl-]` [CYA-6, cyanidin-3-O-rhamnoside chloride], for the setting “10 µM”, the “CYP1A1 mRNA fold induction … LH45” value stood at 0.77 ± 0.12 fold and the “CYP1A1 mRNA fold induction … LH46” value came to 1.19 ± 0.14 fold. Also, where the note is “50 µM”, the “CYP1A1 mRNA fold induction … LH45” value was found to be 0.73 ± 0.04 fold; the “CYP1A1 mRNA fold induction … LH46” value is recorded as 1.36 ± 0.03 fold; the “CYP1A1 mRNA fold induction … LH47” value came to 0.31 ±0.03 fold; the “CYP1A1 mRNA fold induction … LH48” value came to 0.07 ± 0.00 fold.

`OC[C@H]1O[C@@H](Oc2cc3c(O)cc(O)cc3[o+]c2-c2ccc(O)c(O)c2)[C@H](O[C@@H]2OC[C@@H](O)[C@H](O)[C@H]2O)[C@@H](O)[C@H]1O.[Cl-]` [CYA-9, cyanidin-3-O-lathyroside chloride]: where the note is “10 µM”, the “CYP1A1 mRNA fold induction … LH45” value worked out at 0.32 ± 0.12 fold and the “CYP1A1 mRNA fold induction … LH46” value is listed as 0.91 ± 0.11 fold. Under “50 µM”, the “CYP1A1 mRNA fold induction … LH45” value stood at 0.61 ± 0.05 fold; the “CYP1A1 mRNA fold induction … LH46” value is given as 1.77 ± 0.49 fold; the “CYP1A1 mRNA fold induction … LH47” value amounted to 0.11 ± 0.17 fold; the “CYP1A1 mRNA fold induction … LH48” value amounted to 0.09 ± 0.05 fold.

`COc1cc(-c2[o+]c3cc(O)cc(O)c3cc2O[C@@H]2O[C@H](CO)[C@@H](O)[C@H](O)[C@H]2O)ccc1O.[Cl-]` [PEO-1, peonidin-3-O-glucoside chloride]: the “CYP1A1 mRNA fold induction … LH45” value worked out at 0.21 ± 0.03 fold under setting [1] and 0.80 ± 0.22 fold under setting [2]. The “CYP1A1 mRNA fold induction … LH46” value is 2.14 ± 0.18 fold under setting [3] and 2.48 ± 0.57 fold under setting [4]. Further, under setting [5], the “CYP1A1 mRNA fold induction … LH47” value was 0.51 ± 0.07 fold. Under setting [6], the “CYP1A1 mRNA fold induction … LH48” value is 0.08 ± 0.03 fold.

In the case of `C[C@@H]1O[C@@H](Oc2cc3c(O)cc(O)cc3[o+]c2-c2cc(O)c(O)c(O)c2)[C@H](O)[C@H](O)[C@H]1O.[Cl-]` [DEL-5, delphinidin-3-O-rhamnoside chloride], the “CYP1A1 mRNA fold induction … LH45” value reads like this: under setting [1], 0.48 ± 0.01 fold; under setting [2], 0.40 ± 0.09 fold. The “CYP1A1 mRNA fold induction … LH46” value is reported as 0.98 ± 0.15 fold under setting [3] and 1.19 ± 0.18 fold under setting [4]. Moreover, under setting [5], the “CYP1A1 mRNA fold induction … LH47” value is on record as 0.26 ± 0.01 fold. For the same compound, under setting [6], the “CYP1A1 mRNA fold induction … LH48” value is recorded as 0.01 ± 0.01 fold.

For the compound `C[C@@H]1O[C@@H](OC[C@H]2O[C@@H](Oc3cc4c(O)cc(O)cc4[o+]c3-c3ccc(O)c(O)c3)[C@H](O)[C@@H](O)[C@@H]2O)[C@H](O)[C@H](O)[C@H]1O.[Cl-]` [CYA-2, cyanidin-3-O-rutinoside chloride], under “10 µM”, the “CYP1A1 mRNA fold induction … LH45” value is recorded as 2.34 ± 0.28 fold and the “CYP1A1 mRNA fold induction … LH46” value is recorded as 0.55 ± 0.03 fold. For the same compound, where the note is “50 µM”, the “CYP1A1 mRNA fold induction … LH45” value is on record as 0.69 ± 0.25 fold; the “CYP1A1 mRNA fold induction … LH46” value is listed as 0.91 ± 0.04 fold; the “CYP1A1 mRNA fold induction … LH47” value was 0.57 ± 0.09 fold; the “CYP1A1 mRNA fold induction … LH48” value stood at 0.07 ± 0.02 fold.
